From PubChem BioAssay AID2060499 (Molecular Pharmacology Branch, DTP, NCI, 2025)

Tested on: 777334-354-R2-J4-PDC tumor spheroids with HUVEC/MSC, viability
Experiment: Anticancer human tumor 777334-354-R2-J4-PDC patient-derived pancreatic adenocarcinoma cell line growth inhibition [GQUAD]
Settings: for IC50: curve of first compound; for viability, T/C: stronger effect = lower value; active means viability on the fitted dose curve at most 10% of control; inactive means the rest
Text: DNA G-quadruplex Stabilizer Agents in Combinations in Complex Spheroids
A high-throughput screen of multi-cell type tumor spheroids was designed to identify active combinations of DNA G-quadruplex stabilizer agents and targeted small molecules. Complex spheroids include a stromal component modeled by human endothelial cells (HUVEC) and fibroblasts modeled by human mesenchymal stem cells (MSCs). The concentration ranges selected for each drug and investigational agent were based upon clinically achievable concentrations if the clinical Cmax of the agent was known.
Compounds. The drugs and investigational agents: pidnarulex (CX-5461; NSC782164), APTO-253 (NSC789042), BRACO-19 (NSC847499), peposertib (NSC802822), ceralasertib (NSC780249), elimusertib (NSC800525), camonsertib (NSC841442), AZD-1390 (NSC803789), olaparib (NSC753686), talazoparib (NSC767125), ART-558 (NSC835418), sotorasib (NSC818433), MRTX-1133 (NSC836407), SN-38 (NSC673596), topotecan (NSC609699), etoposide (NSC141540), doxorubicin (NSC123127), gemcitabine (NSC613327), 5-fluorouracil (NSC19893), paclitaxel (NSC125973), vemurafenib (NSC761431), panobinostat (NSC761190), R-306465 (JNJ-16241199; NSC773264), adavosertib (NSC754352), TP-3654 (NSC805149), carboplatin (NSC241240), KSQ-4279 (NSC840948), and staurosporine (NSC755774) were obtained from the National Cancer Institute (NCI) Developmental Therapeutics Program Chemical Repository (34). The FDA-approved anticancer drug set is available from the NCI Developmental Therapeutics Program. […] The stock solutions were prepared in dimethyl sulfoxide (DMSO, Sigma-Aldrich, St. Louis, MO, cat. D2650) at 800-fold the tested concentration and stored at -70 degrees C prior to their use. All drugs and investigational agents were tested over a range starting from a high concentration at or near the clinical Cmax and decreasing in half-log increments. If the clinical Cmax for an agent had not been determined, the highest concentration tested was 10 microM.
2.3 Cell Culture. All cells were maintained in an incubator at 37 degrees C and 5% CO2 with 95% humidity. The PDC lines were cultured according to standard operating procedures established by the NCI PDMR. All PDCs were thawed and cultured in Matrigel-coated flasks prepared with a working solution of 1X Ham's F-12 nutrient mix, without supplementation (Invitrogen, cat. 11765054), 100 U/mL penicillin-streptomycin (Invitrogen, cat. 15140122), and 2.5% Matrigel (Corning Inc., cat. 354248) for the first three passages. The 857933-349-R-J2-PDC line was cultured in 6C/Colon 1B media, which includes advanced DMEM/F-12 (Thermo Fisher Scientific, cat. 12634028), 10 mM HEPES (Thermo Fisher Scientific, cat. 15630080), 1X GlutaMAX supplement (Thermo Fisher Scientific, cat. 35050061), 0.1 mg/mL primocin (InvivoGen, cat. ant-pm-2), 10% defined fetal bovine serum, heat inactivated (HyClone Laboratories Inc., cat. SH30070.03HI), 50% L-WRN conditioned media (ATCC, cat. CRL-3276), 1.25 mM N-Acetyl-L-cysteine (Sigma-Aldrich, cat. A9165), 10 mM nicotinamide (Sigma-Aldrich, cat. N0636), 1X B-27 supplement (Thermo Fisher Scientific, cat. 17504044), 1X N-2 supplement (Thermo Fisher Scientific, cat. 17502048), 10 microM Y-27632 dihydrochloride (Tocris Bioscience, cat. 1254), and 50 ng/mL human EGF recombinant protein (Thermo Fisher Scientific, cat. PHG0311). The 485176-168-R4-J1-PDC line was cultured in Panc media, which includes all 6C/Colon 1B media components plus 100 ng/mL human FGF-10 (Thermo Fisher Scientific, cat. 100-26), 500 nM SB-431542 (Selleckchem, cat. S1067), and gastrin (Tocris, cat. 3006).
[…]

[1] = second compound 0.0316 µM, first compound 0.0316 µM
[2] = second compound 0.0316 µM, first compound 0.1 µM
[3] = second compound 0.0316 µM, first compound 0.316 µM
[4] = second compound 0.0316 µM, first compound 1 µM
[5] = second compound 0.0316 µM, first compound 3.16 µM
[6] = second compound 0.0316 µM, first compound 10 µM
[7] = second compound 0.1 µM, first compound 0.0316 µM
[8] = second compound 0.1 µM, first compound 0.1 µM
[9] = second compound 0.1 µM, first compound 0.316 µM
[10] = second compound 0.1 µM, first compound 1 µM
[11] = second compound 0.1 µM, first compound 3.16 µM
[12] = second compound 0.1 µM, first compound 10 µM
[13] = second compound 0.316 µM, first compound 0.0316 µM
[14] = second compound 0.316 µM, first compound 0.1 µM
[15] = second compound 0.316 µM, first compound 0.316 µM
[16] = second compound 0.316 µM, first compound 1 µM
[17] = second compound 0.316 µM, first compound 3.16 µM
[18] = second compound 0.316 µM, first compound 10 µM
[19] = second compound 1 µM, first compound 0.0316 µM
[20] = second compound 1 µM, first compound 0.1 µM
[21] = second compound 1 µM, first compound 0.316 µM
[22] = second compound 1 µM, first compound 1 µM
[23] = second compound 1 µM, first compound 3.16 µM
[24] = second compound 1 µM, first compound 10 µM
[25] = second compound 3.16 µM, first compound 0.0316 µM
[26] = second compound 3.16 µM, first compound 0.1 µM
[27] = second compound 3.16 µM, first compound 0.316 µM
[28] = second compound 3.16 µM, first compound 1 µM
[29] = second compound 3.16 µM, first compound 3.16 µM
[30] = second compound 3.16 µM, first compound 10 µM
[31] = second compound 10 µM, first compound 0.0316 µM
[32] = second compound 10 µM, first compound 0.1 µM
[33] = second compound 10 µM, first compound 0.316 µM
[34] = second compound 10 µM, first compound 1 µM
[35] = second compound 10 µM, first compound 3.16 µM
[36] = second compound 10 µM, first compound 10 µM
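Further: spheroids exposed to compounds for 7 days before readout.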

C#Cc1c(F)ccc2cc(O)cc(-c3ncc4c(N5CC6CCC(C5)N6)nc(OCC56CCCN5CC(F)C6)nc4c3F)c12 (centres undefined) + Cc1[nH]c2ccc(F)cc2c1-c1nc2c3cccnc3c3ncccc3c2[nH]1
81.4 nM: IC50 (second compound 0.0316 µM)
active: viability, T/C [27] 9.09% | viability, T/C [28] 7.85% | viability, T/C [29] 10.6% | viability, T/C [30] 8.93% | viability, T/C [33] 10.5% | viability, T/C [34] 10.1% | viability, T/C [35] 8.96% | viability, T/C [36] 8.05%
47.8 nM: IC50 (second compound 0.1 µM)
inactive: viability, T/C [1] 54.6% | viability, T/C [2] 52.6% | viability, T/C [3] 37.2% | viability, T/C [4] 34.6% | viability, T/C [5] 25.9% | viability, T/C [6] 20% | viability, T/C [7] 56.3% | viability, T/C [8] 37.2% | viability, T/C [9] 32.2% | viability, T/C [10] 38.1% | viability, T/C [11] 26.3% | viability, T/C [12] 20.8% | viability, T/C [13] 51.2% | viability, T/C [14] 38.6% | viability, T/C [15] 34.9% | viability, T/C [16] 39.1% | viability, T/C [17] 21% | viability, T/C [18] 24.6% | viability, T/C [19] 48% | viability, T/C [20] 33.9% | viability, T/C [21] 27.6% | viability, T/C [22] 26.1% | viability, T/C [23] 21.9% | viability, T/C [24] 18.1% | viability, T/C [25] 26% | viability, T/C [26] 10.1% | viability, T/C [31] 16.9% | viability, T/C [32] 9.99%
< 31.6 nM: IC50 (second compound 0.316 µM) | IC50 (second compound 1 µM) | IC50 (second compound 3.16 µM) | IC50 (second compound 10 µM)

CC(=O)O[C@H]1C(=O)[C@@]2(C)[C@H]([C@H](OC(=O)c3ccccc3)[C@]3(O)C[C@H](OC(=O)[C@H](O)[C@@H](NC(=O)c4ccccc4)c4ccccc4)C(C)=C1C3(C)C)[C@]1(OC(C)=O)CO[C@@H]1C[C@@H]2O + Cc1[nH]c2ccc(F)cc2c1-c1nc2c3cccnc3c3ncccc3c2[nH]1
305 nM: IC50 (second compound 0.1 µM)
inactive: viability, T/C [1] 97.1% | viability, T/C [2] 66% | viability, T/C [3] 49.7% | viability, T/C [4] 41.1% | viability, T/C [5] 51.8% | viability, T/C [6] 43.3% | viability, T/C [7] 94.9% | viability, T/C [8] 59.9% | viability, T/C [9] 48.4% | viability, T/C [10] 46.4% | viability, T/C [11] 49.6% | viability, T/C [12] 47.6% | viability, T/C [13] 81.4% | viability, T/C [14] 59.5% | viability, T/C [15] 45.6% | viability, T/C [16] 45.2% | viability, T/C [17] 47.5% | viability, T/C [18] 44.1% | viability, T/C [19] 70.9% | viability, T/C [20] 58.5% | viability, T/C [21] 44.2% | viability, T/C [22] 45.3% | viability, T/C [23] 44.6% | viability, T/C [24] 38.1% | viability, T/C [25] 35.9% | viability, T/C [26] 28% | viability, T/C [27] 22.2% | viability, T/C [28] 17.4% | viability, T/C [29] 17.8% | viability, T/C [30] 15% | viability, T/C [31] 30.7% | viability, T/C [32] 23% | viability, T/C [33] 19.6% | viability, T/C [34] 14% | viability, T/C [35] 15.3% | viability, T/C [36] 15.7%
291 nM: IC50 (second compound 0.0316 µM)
222 nM: IC50 (second compound 0.316 µM)
240 nM: IC50 (second compound 1 µM)
< 31.6 nM: IC50 (second compound 3.16 µM) | IC50 (second compound 10 µM)
